Each compound was assayed against Human Factor D (Homo sapiens (Human), UniProt P00746) (assay: Human Factor D Assay). Conditions: Table 5; Human Factor D 80 nM, substrate Z-L-Lys-SBzl; read-out: IC50 (Stars).
Assay type: biochemical
Method: Human Factor D (purified from human serum, Complement Technology, Inc.) at 80 nM final concentration is incubated with test compound at various concentrations for 5 min at room temperature in 50 mM Tris, 1M NaCl, pH 7.5. A synthetic substrate Z-L-Lys-SBzl and DTNB (Ellman's reagent) are added to final concentrations of 100 μM each. Absorbance at 405 nm (A405) is recorded at 30 second intervals for 30 min using a microplate spectrophotometer. IC50 values are calculated by nonlinear regression of Complement Factor D reaction rates as a function of test compound concentration.

Sequence of Human Factor D (P00746 26-253): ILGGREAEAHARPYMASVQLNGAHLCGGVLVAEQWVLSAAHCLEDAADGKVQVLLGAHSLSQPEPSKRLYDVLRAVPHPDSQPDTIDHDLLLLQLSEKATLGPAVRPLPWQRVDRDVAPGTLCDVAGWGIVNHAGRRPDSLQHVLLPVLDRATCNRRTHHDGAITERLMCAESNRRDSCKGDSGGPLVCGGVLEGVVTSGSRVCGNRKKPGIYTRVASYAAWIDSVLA

SMILES | IC50 [nM]
CC(=O)c1nn(CC(=O)N2[C@H]3C[C@@]3(C)C[C@H]2C(=O)Nc2nc(Br)ccc2C)c2c(S(C)(=N)=O)cccc12 (stereo partly drawn) [Compound T-36, (1S,3S,5S)-2-(2-(3-acetyl-7-(S-methylsulfonimidoyl)-1H-indazol-1-yl)acetyl)-N-(6-bromo-3-methylpyridin-2-yl)-5-methyl-2-azabicyclo[3.1.0]hexane-3-carboxamide] | > 10000
CC(=O)c1nn(CC(=O)N2C[C@H](F)C[C@H]2C(=O)Nc2cccc(Br)n2)c2c1CCCC2 [Compound T-37, (2S,4R)-1-(2-(3-acetyl-4,5,6,7-tetrahydro-1H-indazol-1-yl)acetyl)-N-(6-bromopyridin-2-yl)-4-fluoropyrrolidine-2-carboxamide] | 1000 to 10000
CC(=O)c1nn(CC(=O)N2[C@H]3C[C@@]3(CN(C)C)C[C@H]2C(=O)NCc2cccc(Cl)c2F)c2cc(P(C)(=O)O)ccc12 [Compound T-38, (3-acetyl-1-(2-((1S,3S,5S)-3-((3-chloro-2-fluorobenzyl)carbamoyl)-5-((dimethylamino)methyl)-2-azabicyclo[3.1.0]hexan-2-yl)-2-oxoethyl)-1H-indazol-6-yl)(methyl)phosphinic acid] | 1000 to 10000
CC(=O)c1nn(CC(=O)N2[C@H](C(=O)Nc3nc(Br)ccc3C)C[C@@]3(CN4C[C@H]5CCC[C@H]5C4)C[C@@H]23)c2c(C)cccc12 [Compound T-39, (1R,3S,5R)-2-(2-(3-acetyl-7-methyl-1H-indazol-1-yl)acetyl)-N-(6-bromo-3-methylpyridin-2-yl)-5-(((3aR,6aS)-hexahydrocyclopenta[c]pyrrol-2(1H)-yl)methyl)-2-azabicyclo[3.1.0]hexane-3-carboxamide] | < 1000
CC(=O)c1nn(CC(=O)N2[C@H](C(=O)Nc3nc(Br)ccc3C)C[C@@]3(C)C[C@@H]23)c2c(S(C)=N)cccc12 (stereo partly drawn) [Compound T-40, (1R,3S,5R)-2-(2-(3-acetyl-7-(S-methylsulfinimidoyl)-1H-indazol-1-yl)acetyl)-N-(6-bromo-3-methylpyridin-2-yl)-5-methyl-2-azabicyclo[3.1.0]hexane-3-carboxamide] | < 1000
CC(=O)c1nn(CC(=O)N2[C@H](C(=O)Nc3nc(Br)ccc3C)C[C@@]3(C)C[C@@H]23)c2c(S(C)(=N)=O)cccc12 (stereo partly drawn) [Compound T-41, (1R,3S,5R)-2-(2-(3-acetyl-7-(S-methylsulfonimidoyl)-1H-indazol-1-yl)acetyl)-N-(6-bromo-3-methylpyridin-2-yl)-5-methyl-2-azabicyclo[3.1.0]hexane-3-carboxamide] | < 1000
CC(=O)c1nn(CC(=O)N2[C@H](C(=O)Nc3nc(Br)ccc3C)C[C@@]3(CN4CC5(CCCC5)C4)C[C@@H]23)c2c(C)cccc12 [Compound T-42, (1R,3S,5R)-5-(2-azaspiro[3,4]octan-2-ylmethyl)-2-(2-(3-acetyl-7-methyl-1H-indazol-1-yl)acetyl)-N-(6-bromo-3-methylpyridin-2-yl)-2-azabicyclo[3.1.0]hexane-3-carboxamide] | < 1000
CC(=O)c1nn(CC(=O)N2[C@H](C(=O)Nc3nc(Br)ccc3C)C[C@@]3(CNC(=O)C4CCCC4(F)F)C[C@@H]23)c2c(C)cccc12 (stereo partly drawn) [Compound T-43, (1R,3S,5R)-2-(2-(3-acetyl-7-methyl-1H-indazol-1-yl)acetyl)-N-(6-bromo-3-methylpyridin-2-yl)-5-((2,2-difluorocyclopentane-1-carboxamido)methyl)-2-azabicyclo[3.1.0]hexane-3-carboxamide] | < 1000
CC(=O)c1cn(CC(=O)N2[C@H](C(=O)NCc3cccc(Cl)c3F)C[C@@]3(CN4CCN(C)CC4)C[C@@H]23)c2cc(P(=O)(O)O)ccc12 [Compound T-44, (3-acetyl-1-(2-((1R,3S,5R)-3-((3-chloro-2-fluorobenzyl)carbamoyl)-5-((4-methylpiperazin-1-yl)methyl)-2-azabicyclo[3.1.0]hexan-2-yl)-2-oxoethyl)-1H-indol-6-yl)phosphonic acid] | < 1000
CC(=O)c1cn(CC(=O)N2[C@H]3C[C@@]3(CN3CCN(C)CC3)C[C@H]2C(=O)NCc2cccc(Cl)c2F)c2cc(P(=O)(O)O)ccc12 [Compound T-45, (3-acetyl-1-(2-((1S,3S,5S)-3-((3-chloro-2-fluorobenzyl)carbamoyl)-5-((4-methylpiperazin-1-yl)methyl)-2-azabicyclo[3.1.0]hexan-2-yl)-2-oxoethyl)-1H-indol-6-yl)phosphonic acid] | 1000 to 10000
CC(=O)c1cn(CC(=O)N2C3CC3(CN(C)C)C[C@H]2C(=O)NCc2cccc(Cl)c2F)c2cc(P(=O)(O)O)ccc12 (stereo partly drawn) [Compound T-46, (3-acetyl-1-(2-((3S)-3-((3-chloro-2-fluorobenzyl)carbamoyl)-5-((dimethylamino)methyl)-2-azabicyclo[3.1.0]hexan-2-yl)-2-oxoethyl)-1H-indol-6-yl)phosphonic acid] | 1000 to 10000
CC(=O)c1cn(CC(=O)N2[C@H](C(=O)NCc3cccc(Cl)c3F)C[C@@]3(CN(C)C)C[C@@H]23)c2cc(P(C)(=O)O)ccc12 [Compound T-47, (3-acetyl-1-(2-((1R,3S,5R)-3-((3-chloro-2-fluorobenzyl)carbamoyl)-5-((dimethylamino)methyl)-2-azabicyclo[3.1.0]hexan-2-yl)-2-oxoethyl)-1H-indol-6-yl)(methyl)phosphinic acid] | < 1000
CC(=O)c1cn(CC(=O)N2[C@H]3C[C@@]3(CN(C)C)C[C@H]2C(=O)NCc2cccc(Cl)c2F)c2cc(P(C)(=O)O)ccc12 [Compound T-48, (3-acetyl-1-(2-((1S,3S,5S)-3-((3-chloro-2-fluorobenzyl)carbamoyl)-5-((dimethylamino)methyl)-2-azabicyclo[3.1.0]hexan-2-yl)-2-oxoethyl)-1H-indol-6-yl)(methyl)phosphinic acid] | 1000 to 10000
CC(=O)c1nn(CC(=O)N2[C@H](C(=O)Nc3nc(Br)ccc3C)C[C@@]3(CN(C)C)C[C@@H]23)c2cc(C(=O)NS(=O)(=O)C3CC3)ccc12 [Compound T-49, 3-acetyl-1-(2-((1R,3S,5R)-3-((6-bromo-3-methylpyridin-2-yl)carbamoyl)-5-((dimethylamino)methyl)-2-azabicyclo[3.1.0]hexan-2-yl)-2-oxoethyl)-N-(cyclopropylsulfonyl)-1H-indazole-6-carboxamide] | < 1000
CC(=O)c1nn(CC(=O)N2[C@H]3C[C@@]3(CN(C)C)C[C@H]2C(=O)Nc2nc(Br)ccc2C)c2cc(C(=O)NS(=O)(=O)C3CC3)ccc12 [Compound T-50, 3-acetyl-1-(2-((1S,3S,5S)-3-((6-bromo-3-methylpyridin-2-yl)carbamoyl)-5-((dimethylamino)methyl)-2-azabicyclo[3.1.0]hexan-2-yl)-2-oxoethyl)-N-(cyclopropylsulfonyl)-1H-indazole-6-carboxamide] | 1000 to 10000

Same assay, conditions: Table 6; Human Factor D 80 nM, substrate Z-L-Lys-SBzl; read-out: IC5 (Stars)

SMILES | IC50 [nM]
CC(=O)c1nn(CC(=O)N2[C@H](C(=O)Nc3nc(Br)ccc3C3CC3)C[C@@]3(C)C[C@@H]23)c2ccc(O[C@@H]3CO[C@H]4[C@@H]3OC[C@H]4O)cc12 [Compound T-51, (1R,3S,5R)-2-(2-(3-acetyl-5-(((3R,3aR,6R,6aR)-6-hydroxy-hexahydrofuro[3,2-b]furan-3-yl)oxy)-1H-indazol-1-yl)acetyl)-N-(6-bromo-3-cyclopropyl-pyridin-2-yl)-5-methyl-2-azabicyclo[3.1.0]hexane-3-carboxamide] | < 1000
CC(=O)c1nn(CC(=O)N2[C@H](C(=O)Nc3nc(Br)ccc3C)C[C@@]3(C)C[C@@H]23)c2ccc(O[C@@H]3CO[C@H]4[C@@H]3OC[C@H]4O)cc12 [Compound T-52, (1R,3S,5R)-2-(2-(3-acetyl-5-(((3R,3aR,6R,6aR)-6-hydroxy-hexahydrofuro[3,2-b]furan-3-yl)oxy)-1H-indazol-1-yl)acetyl)-N-(6-bromo-3-methylpyridin-2-yl)-5-methyl-2-azabicyclo[3.1.0]hexane-3-carboxamide] | < 1000
CC(=O)O[C@@H]1CO[C@H]2[C@@H]1OC[C@H]2Oc1ccc2c(c1)c(C(C)=O)nn2CC(=O)N1C[C@H](F)C[C@H]1C(=O)Nc1nc(Br)ccc1C [Compound T-53, (3R,3aR,6R,6aR)-6-((3-acetyl-1-(2-((2S,4R)-2-((6-bromo-3-methylpyridin-2-yl)carbamoyl)-4-fluoropyrrolidin-1-yl)-2-oxoethyl)-1H-indazol-5-yl)oxy)hexahydrofuro[3,2-b]furan-3-yl acetate] | < 1000
CC(=O)c1nn(CC(=O)N2C[C@H](F)C[C@H]2C(=O)Nc2cccc(Br)n2)c2ccc(OCCS(=O)(=O)CC3(C)COC3)cc12 [Compound T-54, (2S,4R)-1-(2-(3-acetyl-5-(2-(((3-methyloxetan-3-yl)methyl)sulfonyl)ethoxy)-1H-indazol-1-yl)acetyl)-N-(6-bromopyridin-2-yl)-4-fluoro-pyrrolidine-2-carboxamide] | < 1000
CC(=O)c1nn(CC(=O)N2C[C@H](F)C[C@H]2C(=O)Nc2nc(Br)ccc2C)c2ccc(OCCS(=O)(=O)CC3(C)COC3)cc12 [Compound T-55, (2S,4R)-1-(2-(3-acetyl-5-(2-(((3-methyloxetan-3-yl)methyl)sulfonyl)ethoxy)-1H-indazol-1-yl)acetyl)-N-(6-bromo-3-methylpyridin-2-yl)-4-fluoro-pyrrolidine-2-carboxamide] | < 1000
CC(=O)c1nn(CC(=O)N2C(C(=O)Nc3nc(Br)ccc3C)C[C@]3(C)C[C@H]23)c2ccc(OCCS(=O)(=O)CC3(C)COC3)cc12 (stereo partly drawn) [Compound T-56, (1S,5S)-2-(2-(3-acetyl-5-(2-(((3-methyloxetan-3-yl)methyl)sulfonyl)ethoxy)-1H-indazol-1-yl)acetyl)-N-(6-bromo-3-methylpyridin-2-yl)-5-methyl-2-azabicyclo[3.1.0]hexane-3-carboxamide] | 1000 to 10000
